As usually defined, the IC50 is the concentration needed to halve the response being measured. High values mean lower potency, low ones higher potency.

Bounds are passed on as bounds.

This assay has as its system Endogenous Huntingtin Protein. As to the kind of experiment: Endogenous Huntingtin Protein Assay (Meso Scale Discovery ELISA-based electrochemiluminescence). The note with it: MSD electrochemiluminescence, Table 1. In kind it is cell-based. An outline of the steps: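 MSD electrochemiluminescence sandwich ELISA: MW1 (expanded polyQ) or MAB2166 capture antibody at 1 μg/mL, samples incubated overnight at 4° C. Detection with rabbit monoclonal #5656S then SULFO-TAG anti-rabbit antibody, each 0.25 μg/mL for 1 h at room temperature.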
(An ELISA detects its analyte on a solid surface through an enzyme-linked reagent.)
`Cc1nc2c(C)cc(-c3cc(F)c4cc(C5C[C@@H](C)N(C)[C@@H](C)C5)nnc4c3)nc2o1` (stereo partly drawn) [Compound 226, 5-(5-fluoro-3-((2S,4R,6R)-1,2,6-trimethylpiperidin-4-yl)cinnolin-7-yl)-2,7-dimethyloxazolo[5,4-b]pyridine] displayed an IC50 not above 100 nM.

For `Cn1cc2cc(-c3cc4c(F)cc(C5=CCNCC5)cc4nn3)cc(C#N)c2n1` [Compound 175, 5-[5-fluoro-7-(1,2,3,6-tetrahydropyridin-4-yl)cinnolin-3-yl]-2-methyl-2H-indazole-7-carbonitrile], the IC50 is not above 100 nM.

`CN1CCC(c2ccc3cc(-c4ccc5nn(C)cc5c4)ccc3n2)CC1` [Compound 6, 6-(2-methyl-2H-indazo1-5-yl)-2-(1-methylpiperidin-4-yl)quinoline] yielded an IC50 of 500 to 1000 nM.

For `CCN1CCC(c2cc3c(F)cc(-c4nc5c(C)nc(C)cc5s4)cc3nn2)CC1` [Compound 147, 7-(4,6-dimethyl[1,3]thiazolo[4,5-c]pyridin-2-yl)-3-(1-ethylpiperidin-4-yl)-5-fluorocinnoline], the IC50 was 100 to 500 nM.

For `Cc1cc2cc(-c3cc(F)c4nc(C5CCNCC5)nnc4c3)cc(C)n2n1` [Compound 65, 7-(2,7-dimethylpyrazolo[1,5-a]pyridin-5-yl)-5-fluoro-3-(piperidin-4-yl)-1,2,4-benzotriazine], the half-maximal inhibitory concentration (IC50) was in the range of 100 to 500 nM.

`Cc1cn2nc(-c3cc(F)c4nc(C5CCNCC5)ncc4c3)cc(C)c2n1` [Compound 37, 6-(2,8-dimethylimidazo[1,2-b]pyridazin-6-yl)-8-fluoro-2-(piperidin-4-yl)quinazoline] returned an IC50 not above 100 nM.

Turning to `COc1cc(-c2cc(F)c3cc(C4CCNCC4)nnc3c2)nc2cn(C)nc12` [Compound 163, 5-fluoro-7-(7-methoxy-2-methyl-2H-pyrazolo[4,3-b]pyridin-5-yl)-3-(piperidin-4-yl)cinnoline], the IC50 was not above 100 nM.

Consider `Cc1cn2nc(-c3cc(F)c4cc(C5CC6CC[C@@H](C5)N6)nnc4c3)cc(C)c2n1` (stereo partly drawn) [Compound 169, 3-[(1R,3r,5S)-8-azabicyclo[3.2.1]octan-3-yl]-7-(2,8-dimethylimidazo[1,2-b]pyridazin-6-yl)-5-fluorocinnoline], for which the IC50 is not above 100 nM.

`Cn1cc2cc(-c3cc(F)c4cc(C5CCNCC5)nnc4c3)ccc2n1` [Compound 95, 5-fluoro-7-(2-methyl-2H-indazol-5-yl)-3-(piperidin-4-yl)cinnoline] displayed an IC50 not above 100 nM.

`Cc1cn2cc(-c3cc(F)c4nc(C5CCNCC5)nnc4c3)cc(C(F)(F)F)c2n1` [Compound 61, 5-fluoro-7-[2-methyl-8-(trifluoromethyl)imidazo[1,2-a]pyridin-6-yl]-3-(piperidin-4-yl)-1,2,4-benzotriazine]: the IC50 lay in the range of 500 to 1000 nM.

Take `CCN1CCC(c2cc(F)c3cc(-c4cc(F)c5nc(C)cn5c4)nnc3c2)CC1` [Compound 144, 7-(1-ethylpiperidin-4-yl)-5-fluoro-3-(8-fluoro-2-methylimidazo[1,2-a]pyridin-6-yl)cinnoline]: the IC50 was not above 100 nM.

Regarding `Cc1cn2cc(-c3cc(F)c4cc(C5CCNCC5)nnc4c3)cnc2n1` [Compound 91, 5-fluoro-7-(2-methylimidazo[1,2-a]pyrimidin-6-yl)-3-(piperidin-4-yl)cinnoline], the IC50 was in the range of 1000 to 3000 nM.

The compound `Cc1cn2nc(-c3cc(F)c4cc(N5CC6CC5CN6C)nnc4c3)cc(C)c2n1` (centres unmarked) [Compound 209, 7-(2,8-dimethylimidazo[1,2-b]pyridazin-6-yl)-5-fluoro-3-(5-methyl-2,5-diazabicyclo[2.2.1]heptan-2-yl)cinnoline] had an IC50 of 100 to 500 nM.

In the case of `Cc1cc(-c2cc3cnc(C4CCNCC4)nc3cc2F)cc2cn(C)nc12` [Compound 39, 6-(2,7-dimethyl-2H-indazol-5-yl)-7-fluoro-2-(piperidin-4-yl)quinazoline], the IC50 was in the range of 1000 to 3000 nM.

`CCN1CCC(c2ccc3cc(-c4cc(C)c5nc(C)cn5n4)cc(F)c3n2)CC1` [Compound 48, 6-(2,8-dimethylimidazo[1,2-b]pyridazin-6-yl)-2-(1-ethylpiperidin-4-yl)-8-fluoroquinoline]: the IC50 was not above 100 nM.

In the case of `CCN1CC=C(c2cc(F)c3nc(-c4cc(F)c5nn(C)cc5c4)ccc3c2)CC1` [Compound 184, 6-(1-ethyl-1,2,3,6-tetrahydropyridin-4-yl)-8-fluoro-2-(7-fluoro-2-methyl-2H-indazol-5-yl)quinoline], the IC50 was not above 100 nM.

In turn, `CCc1cc(-c2cc(F)c3cc(C4CCN(CC)CC4)nnc3c2)nc2cn(C)nc12` [Compound 174, 7-(7-ethyl-2-methyl-2H-pyrazolo[4,3-b]pyridin-5-yl)-3-(1-ethylpiperidin-4-yl)-5-fluorocinnoline] yielded an IC50 not above 100 nM.

The values are drawn from patent US12384789B2, “Compounds for treating Huntington's disease” (PTC Therapeutics, Inc., priority 2017, dated 2025).
